US4317815A, “LH-RH Antagonists” (priority 1979, dated 1982)
*1 amine or outer side, *2 acyl side, *3 side chain or, on linkers, in order; H or OH if unused. Where a SMILES comes first, the peptide text is derived from it. [ ]: non-standard residue; d: D form. dPhe(4-Br) = N[C@H](Cc1ccc(Br)cc1)C(=O)O; dPhe(4-Cl) = N[C@H](Cc1ccc(Cl)cc1)C(=O)O; dPhe(4-F) = N[C@H](Cc1ccc(F)cc1)C(=O)O; Suc = O=C(CCC(=O)[*:2])[*:1]

Test system: mature female rats
Experiment: Antiovulatory activity (blockade of ovulation) in proestrus female rats, test of de la Cruz et al.
Assay type: in vivo, rat
Conditions: 12 noon of proestrus
Procedure: The analogs are administered in 20% propylene glycol in physiologic saline (see Table I) or as a suspension in corn oil (see Table II) at 12 noon of the day of proestrus. On the following day, the rats are sacrificed, their fallopian tubes and uteri flushed with saline and the washed examined for ova.
The test results for several analogs are given in Table I. In Table II, a comparison, between the compound of formula I in which X is acetyl, R^1 is D-Phe, R^2 is D-p-Cl-Phe, R^3 is D-Trp, R^4 is D-Trp and R^5 is Gly, the title compound of Example 7, and the compound of the prior art, [Ac-D-Phe^1, D-Phe^2, D-Trp^3,6 ]-LH-RH, noted hereinbefore, is shown. As noted above, a different carrier is used for administering the compounds in Table I than in Table II.

[1] = Table I, dose 0.015 mg, in 20% propylene glycol in physiologic saline
[2] = Table I, dose 0.062 mg, in 20% propylene glycol in physiologic saline
[3] = Table I, dose 0.25 mg, in 20% propylene glycol in physiologic saline, ova examined the following day
[4] = Table I, dose 0.125 mg, in 20% propylene glycol in physiologic saline

SMILES: CC(=O)N[C@H](Cc1ccccc1)C(=O)N[C@H](Cc1ccccc1)C(=O)N[C@H](Cc1c[nH]c2ccccc12)C(=O)N[C@@H](CO)C(=O)N[C@@H](Cc1ccc(O)cc1)C(=O)N[C@H](Cc1c[nH]c2ccccc12)C(=O)N[C@@H](CC(C)C)C(=O)N[C@@H](CCCNC(=N)N)C(=O)N1CCC[C@H]1C(=O)NCC(N)=O [[Ac-D-Phe^1, D-Phe^2, D-Trp^3,6]-LH-RH, reference compound] (Ac-[dF][dF][dW]SY[dW]LRPG-NH2)
- % Blockade of Ovulation (Table II, dose 100 mcg, suspension in corn oil): 40%
- % Blockade of Ovulation (Table II, dose 250 mcg, suspension in corn oil): 100%

SMILES: CC(=O)N[C@H](Cc1ccccc1)C(=O)N[C@H](Cc1ccc(Cl)cc1)C(=O)N[C@H](Cc1c[nH]c2ccccc12)C(=O)N[C@@H](CO)C(=O)N[C@@H](Cc1ccc(O)cc1)C(=O)N[C@H](Cc1c[nH]c2ccccc12)C(=O)N[C@@H](CC(C)C)C(=O)N[C@@H](CCCNC(=N)N)C(=O)N1CCC[C@H]1C(=O)N[C@H](C)C(N)=O [Example 16, N-Acetyl-D-phenylalanyl-D-p-chlorophenylalanyl-D-tryptophyl-L-seryl-L-tyrosyl-D-tryptophyl-L-leucyl-L-arginyl-L-prolyl-D-alaninamide] (Ac-[dF][dPhe(4-Cl)][dW]SY[dW]LRP[dA]-NH2)
- % Blockade of Ovulation [1]: 100%

SMILES: CC(=O)N[C@H](Cc1ccc(Cl)cc1)C(=O)N[C@H](Cc1ccc(Cl)cc1)C(=O)N[C@H](Cc1c[nH]c2ccccc12)C(=O)N[C@@H](CO)C(=O)N[C@@H](Cc1ccc(O)cc1)C(=O)N[C@H](Cc1c[nH]c2ccccc12)C(=O)N[C@@H](CC(C)C)C(=O)N[C@@H](CCCNC(=N)N)C(=O)N1CCC[C@H]1C(=O)NCC(N)=O [Example 14, N-Acetyl-D-p-chlorophenylalanyl-D-p-chlorophenylalanyl-D-tryptophyl-L-seryl-L-tyrosyl-D-tryptophyl-L-leucyl-L-arginyl-L-prolyl-glycinamide] (Ac-[dPhe(4-Cl)][dPhe(4-Cl)][dW]SY[dW]LRPG-NH2)
- % Blockade of Ovulation [1]: 70%

SMILES: CC(=O)N[C@H](Cc1ccccc1)C(=O)N[C@H](Cc1ccc(Cl)cc1)C(=O)N[C@H](Cc1c[nH]c2ccccc12)C(=O)N[C@@H](CO)C(=O)N[C@@H](Cc1ccc(O)cc1)C(=O)N[C@H](Cc1c[nH]c2ccccc12)C(=O)N[C@@H](CC(C)C)C(=O)N[C@@H](CCCNC(=N)N)C(=O)N1CCC[C@H]1C(=O)NCC(N)=O [Example 7, N-Acetyl-D-phenylalanyl-D-p-chlorophenylalanyl-D-tryptophyl-L-seryl-L-tyrosyl-D-tryptophyl-L-leucyl-L-arginyl-L-prolyl-glycinamide] (Ac-[dF][dPhe(4-Cl)][dW]SY[dW]LRPG-NH2)
- % Blockade of Ovulation (Table I, dose 0.031 mg, in 20% propylene glycol in physiologic saline): 64%
- % Blockade of Ovulation [2]: 100%
- % Blockade of Ovulation (Table II, dose 15 mcg, suspension in corn oil): 100%
- % Blockade of Ovulation (Table II, dose 31 mcg, suspension in corn oil): 100%

SMILES: CC(C)C[C@H](NC(=O)[C@@H](Cc1ccccc1)NC(=O)[C@H](Cc1ccc(O)cc1)NC(=O)[C@H](CO)NC(=O)[C@@H](Cc1c[nH]c2ccccc12)NC(=O)[C@@H](Cc1ccc(F)cc1)NC(=O)[C@H](N)Cc1ccccc1)C(=O)N[C@@H](CCCNC(=N)N)C(=O)N1CCC[C@H]1C(=O)NCC(N)=O [D-Phenylalanyl-D-p-fluorophenylalanyl-D-tryptophyl-L-seryl-L-tyrosyl-D-phenylalanyl-L-leucyl-L-arginyl-L-prolyl-glycinamide] (H-[dF][dPhe(4-F)][dW]SY[dF]LRPG-NH2)
- % Blockade of Ovulation [3]: 10%

SMILES: CC(C)C[C@H](NC(=O)[C@@H](Cc1ccccc1)NC(=O)[C@H](Cc1ccc(O)cc1)NC(=O)[C@H](CO)NC(=O)[C@@H](Cc1c[nH]c2ccccc12)NC(=O)[C@@H](Cc1ccc(Cl)cc1)NC(=O)[C@@H](Cc1ccccc1)NC(=O)CCC(=O)O)C(=O)N[C@@H](CCCNC(=N)N)C(=O)N1CCC[C@H]1C(=O)NCC(N)=O [Example 10, N-Succinyl-D-phenylalanyl-D-p-chlorophenylalanyl-D-tryptophyl-L-seryl-L-tyrosyl-D-phenylalanyl-L-leucyl-L-arginyl-l-prolyl-glycinamide] (Suc-[dF][dPhe(4-Cl)][dW]SY[dF]LRPG-NH2)
- % Blockade of Ovulation [2]: 50%
- % Blockade of Ovulation [4]: 80%

SMILES: CC(C)C[C@H](NC(=O)[C@@H](Cc1ccccc1)NC(=O)[C@H](Cc1ccc(O)cc1)NC(=O)[C@H](CO)NC(=O)[C@@H](Cc1c[nH]c2ccccc12)NC(=O)[C@@H](Cc1ccc(Cl)cc1)NC(=O)[C@H](N)Cc1ccccc1)C(=O)N[C@@H](CCCNC(=N)N)C(=O)N1CCC[C@H]1C(=O)NCC(N)=O [Example 9, D-Phenylalanyl-D-p-chlorophenylalanyl-D-tryptophyl-L-seryl-L-tyrosyl-D-phenylalanyl-L-leucyl-L-arginyl-L-prolyl-glycinamide] (H-[dF][dPhe(4-Cl)][dW]SY[dF]LRPG-NH2)
- % Blockade of Ovulation [4]: 11%
- % Blockade of Ovulation [3]: 82%

SMILES: CC(C)C[C@H](NC(=O)[C@@H](Cc1ccccc1)NC(=O)[C@H](Cc1ccc(O)cc1)NC(=O)[C@H](CO)NC(=O)[C@@H](Cc1c[nH]c2ccccc12)NC(=O)[C@@H](Cc1ccc(Br)cc1)NC(=O)[C@H](N)Cc1ccccc1)C(=O)N[C@@H](CCCNC(=N)N)C(=O)N1CCC[C@H]1C(=O)NCC(N)=O [Example 8, D-Phenylalanyl-D-p-bromophenylalanyl-D-tryptophyl-L-seryl-L-tyrosyl-D-phenylalanyl-L-leucyl-L-arginyl-L-prolyl-glycinamide] (H-[dF][dPhe(4-Br)][dW]SY[dF]LRPG-NH2)
- % Blockade of Ovulation [3]: 50%
